Columns and labels:
[1] = target: PDE4 (Canis lupus familiaris); assay: Inhibition of canine heart phosphodiesterase 4
Homo sapiens [2] = species: Homo sapiens; assay: Inhibition of collagen induced platelet aggregation in human platelet rich plasma at 5*10e-5 M; assay type: functional
Homo sapiens [3] = species: Homo sapiens; assay: Inhibition of arachidonic acid induced platelet aggregation in human platelet rich plasma at 5*10e-5 M; assay type: functional
[4] = In vitro inhibitory activity against prostaglandin E2 in platelet aggregation induced by arachidonic acid at 5*10e-4 M concentration.; assay type: functional
Homo sapiens [5] = species: Homo sapiens; assay: Inhibition of adrenaline induced platelet aggregation in human platelet rich plasma at 5*10e-5 M; assay type: functional
[6] = system: PDE4 (Canis lupus familiaris); assay: Inhibition of canine heart Phosphodiesterase 4 at 100 uM
Cavia porcellus [7] = species: Cavia porcellus; assay: Inhibition of ADP-induced platelet aggregation in guinea pig whole blood at 10e-4 M; assay type: functional
Cavia porcellus [8] = species: Cavia porcellus; assay: Inhibition of arachidonic acid induced platelet aggregation in guinea pig whole blood at 10e-4 M; assay type: functional
Homo sapiens [9] = species: Homo sapiens; assay: nhibition of ADP-induced platelet aggregation in human platelet rich plasma at 5*10e-5 M; assay type: functional
Cavia porcellus [10] = species: Cavia porcellus; assay: (§1) Inhibition of ADP-induced platelet aggregation in guinea pig whole blood at 5*10e-4 M; assay type: functional
Cavia porcellus [11] = species: Cavia porcellus; assay: (§2) Inhibition of arachidonic acid induced platelet aggregation in guinea pig whole blood at 5*10e-4 M; assay type: functional
[12] = target: T1, Thromboxane-A synthase (Homo sapiens) (UniProt P24557); assay: In vitro inhibitory activity against prostaglandin E2 in platelet aggregation induced by arachidonic acid at 10e-4 M concentration; (Change from basal value); assay type: functional
T1 sequence (whole entry): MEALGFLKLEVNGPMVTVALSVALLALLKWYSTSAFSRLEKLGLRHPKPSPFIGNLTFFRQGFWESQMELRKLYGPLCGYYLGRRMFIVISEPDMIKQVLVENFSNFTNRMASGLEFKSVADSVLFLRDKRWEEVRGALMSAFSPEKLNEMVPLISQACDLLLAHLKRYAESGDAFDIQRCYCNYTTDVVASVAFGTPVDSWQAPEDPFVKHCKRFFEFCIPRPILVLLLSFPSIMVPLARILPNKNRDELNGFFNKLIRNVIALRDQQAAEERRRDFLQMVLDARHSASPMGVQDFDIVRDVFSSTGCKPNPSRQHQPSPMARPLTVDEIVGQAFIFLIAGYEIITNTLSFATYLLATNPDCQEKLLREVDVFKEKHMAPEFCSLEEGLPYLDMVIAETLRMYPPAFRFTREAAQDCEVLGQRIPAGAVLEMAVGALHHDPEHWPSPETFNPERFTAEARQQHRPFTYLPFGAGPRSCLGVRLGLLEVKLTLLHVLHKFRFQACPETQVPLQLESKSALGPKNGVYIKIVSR

[13] = target: T1, Thromboxane-A synthase (Homo sapiens); assay: In vitro inhibitory activity against thromboxane B2 synthetase in platelet aggregation induced by arachidonic acid at 5*10e-4 M concentration; (Change from basal value); assay type: functional
[14] = target: T1, Thromboxane-A synthase (Homo sapiens); assay: In vitro inhibitory activity against prostaglandin E2 in platelet aggregation induced by arachidonic acid at 5*10e-4 M concentration; (Change from basal value); assay type: functional
[15] = target: T1, Thromboxane-A synthase (Homo sapiens); assay: In vitro inhibitory activity against thromboxane B2 synthetase in platelet aggregation induced by arachidonic acid at 10e-4 M concentration; (Change from basal value); assay type: functional
[16] = system: PDE4 (Canis lupus familiaris); assay: Inhibition of canine heart Phosphodiesterase 4 at 50 uM
Cavia porcellus [17] = species: Cavia porcellus; assay: Inhibition of ADP-induced platelet aggregation in guinea pig whole blood at 5*10e-3 M; assay type: functional
Homo sapiens [18] = species: Homo sapiens; assay: Inhibition of adrenaline induced platelet aggregation in human platelet rich plasma at 10e-5 M; assay type: functional
[19] = target: T1, Thromboxane-A synthase (Homo sapiens); assay: In vitro inhibitory activity against prostaglandin E2 in platelet aggregation induced by arachidonic acid at 5*10e-3 M concentration; (Change from basal value); assay type: functional
[20] = as §2; assay type: functional, Cavia porcellus
Cavia porcellus [21] = species: Cavia porcellus; assay: Inhibition of arachidonic acid induced platelet aggregation in guinea pig whole blood at 5*10e-3 M; assay type: functional
Homo sapiens [22] = species: Homo sapiens; assay: Inhibition of ADP-induced platelet aggregation in human platelet rich plasma at 10e-5 M; assay type: functional
Homo sapiens [23] = species: Homo sapiens; assay: Inhibition of collagen induced platelet aggregation in human platelet rich plasma at 10e-5 M; assay type: functional
[24] = target: T1, Thromboxane-A synthase (Homo sapiens); assay: In vitro inhibitory activity against thromboxane B2 synthetase in platelet aggregation induced by arachidonic acid at 5*10e-3 M concentration; (Change from basal value); assay type: functional
[25] = as §1; assay type: functional, Cavia porcellus
Homo sapiens [26] = species: Homo sapiens; assay: Inhibition of arachidinoc acid induced platelet in human platelet rich plasma at 10e-5 M; assay type: functional
Homo sapiens [27] = species: Homo sapiens; assay: Inhibition of adrenaline induced platelet aggregation in human platelet rich plasma at 7.5*10e-5 M; assay type: functional
Homo sapiens [28] = species: Homo sapiens; assay: Inhibition of arachidinoc acid induced platelet in human platelet rich plasma at 5*10e-5 M; assay type: functional
Homo sapiens [29] = species: Homo sapiens; assay: Inhibition of ADP-induced platelet aggregation in human platelet rich plasma at 7.5*10e-5 M; assay type: functional
Homo sapiens [30] = species: Homo sapiens; assay: Inhibition of arachidinoc acid induced platelet in human platelet rich plasma at 7.5*10e-5 M.; assay type: functional
Homo sapiens [31] = species: Homo sapiens; assay: Inhibition of ADP-induced platelet aggregation in human platelet rich plasma at 5*10e-5 M; assay type: functional
Cavia porcellus [32] = species: Cavia porcellus; assay: Inhibition of arachidonic acid induced platelet aggregation in guinea pig whole blood at 5*10e-5 M; assay type: functional
Homo sapiens [33] = species: Homo sapiens; assay: Inhibition of collagen induced platelet aggregation in human platelet rich plasma at 7.5*10e-5 M; assay type: functional
Cavia porcellus [34] = species: Cavia porcellus; assay: Inhibition of ADP-induced platelet aggregation in guinea pig whole blood at 5*10e-5 M; assay type: functional
Homo sapiens [35] = species: Homo sapiens; assay: Inhibition of arachidonic acid induced platelet aggregation in human platelet rich plasma at 10e-5 M; assay type: functional
Cavia porcellus [36] = species: Cavia porcellus; assay: Inhibition of arachidonic acid induced platelet aggregation in guinea pig whole blood at 10e-6 M; assay type: functional
[37] = In vitro inhibitory activity against prostaglandin E2 in platelet aggregation induced by arachidonic acid at 10e-4 M concentration.; assay type: functional
[38] = In vitro inhibitory activity against prostaglandin E2 in platelet aggregation induced by arachidonic acid at 5*10e-5 M concentration.; assay type: functional
Cavia porcellus [39] = species: Cavia porcellus; assay: Inhibition of arachidonic acid induced platelet aggregation in guinea pig whole blood at 10e-5 M; assay type: functional
Cavia porcellus [40] = species: Cavia porcellus; assay: Inhibition of arachidonic acid induced platelet aggregation in guinea pig whole blood at 5*10e-6 M; assay type: functional
Cavia porcellus [41] = species: Cavia porcellus; assay: Inhibition of arachidonic acid induced platelet aggregation in guinea pig whole blood at 5*10e-4 M (not determined); assay type: functional

CNNc1[nH]nc(-n2nc(C)cc2C)c2nc3ccccc3c1-2
IC50 [1]: 118 µM | Inhibition (Homo sapiens [2]): 0% | Inhibition (Homo sapiens [3]): 0% | Inhibition [4]: -72.8% | Inhibition (Homo sapiens [5]): 0% | inhibition [6]: 44.8% | inhibition at 100 µM (Cavia porcellus [7]): 0% | inhibition at 100 µM (Cavia porcellus [8]): 7.86% | Inhibition (Homo sapiens [9]): 0% | Inhibition (Cavia porcellus [10]): 33.8% | Inhibition (Cavia porcellus [11]): 100%

CCOC(=O)c1n[nH]c2c3nc4ccccc4c-3c(Cl)nn12
inhibition [6]: 37% | Inhibition (Cavia porcellus [10]): 57.63% | Inhibition (Cavia porcellus [11]): 13.4%

c1ccc2c(c1)[nH]c1c(-c3ncc[nH]3)nnc(-c3ncc[nH]3)c12
Prostaglandin E2 level [12]: 518% | Thromboxane B2 level [13]: -31% | Prostaglandin E2 level [14]: 119% | inhibition at 100 µM (Cavia porcellus [7]): 23.2% | inhibition at 100 µM (Cavia porcellus [8]): 100% | Inhibition (Cavia porcellus [10]): 24.25% | Inhibition (Cavia porcellus [11]): 98.88% | Thromboxane B2 level [15]: -61%

COc1ccccc1N1CCN(c2[nH]nc(-n3nc(C)cc3C)c3nc4ccccc4c2-3)CC1
inhibition [16]: 11.9%

NNc1nncc2ccccc12 [HYDRALAZINE]
Inhibition (Cavia porcellus [10]): 0% | Inhibition (Cavia porcellus [11]): 20%

NNC(=O)c1n[nH]c2c3nc4ccccc4c-3c(NN)nn12 [listing 1 of 3 here]
inhibition [6]: 55.9%

COc1ccccc1N1CCN(c2n[nH]c(N3CCN(c4ccccc4OC)CC3)c3c4ccccc4nc2-3)CC1
inhibition [6]: 7.52% | inhibition at 100 µM (Cavia porcellus [7]): 0% | inhibition at 100 µM (Cavia porcellus [8]): 26.6% | Inhibition (Cavia porcellus [10]): 64% | Inhibition (Cavia porcellus [11]): 56.13%

CCOc1ccccc1N1CCN(c2[nH]nc(-n3nc(C)cc3C)c3nc4ccccc4c2-3)CC1
inhibition [16]: 17.6%

COc1ccc(N2CCN(c3[nH]nc(-n4nc(C)cc4C)c4nc5ccccc5c3-4)CC2)cc1
inhibition [6]: 4.8%

CC(=O)Oc1ccccc1C(=O)O [ASPIRIN]
Inhibition (Cavia porcellus [17]): 15% | inhibition at 10 µM (Homo sapiens [18]): 38.3% | Prostaglandin E2 level [19]: -100% | Inhibition [20]: 100% | Inhibition (Cavia porcellus [21]): 30% | inhibition at 10 µM (Homo sapiens [22]): 20% | inhibition at 10 µM (Homo sapiens [23]): 52% | Thromboxane B2 level [24]: -100% | Inhibition [25]: 100% | inhibition at 10 µM (Homo sapiens [26]): 90%

NNC(=O)c1n[nH]c2c3nc4ccccc4c-3c(NN)nn12 [listing 2 of 3 here]
IC50 [1]: 121 µM

Cc1cc(C)n(-c2[nH]nc(NN)c3c4ccccc4nc2-3)n1.Cl
Inhibition (Homo sapiens [27]): 22% | Inhibition (Homo sapiens [28]): 4.8% | Inhibition (Homo sapiens [29]): 23% | IC50 [1]: 348 µM | Inhibition (Homo sapiens [30]): 6.5% | Inhibition (Homo sapiens [2]): 0% | Inhibition (Homo sapiens [31]): 22% | Inhibition [4]: 11.8% | Inhibition (Homo sapiens [5]): 0% | Inhibition (Cavia porcellus [32]): 0% | Inhibition (Homo sapiens [33]): 78.4% | inhibition at 100 µM (Cavia porcellus [7]): 23% | inhibition at 100 µM (Cavia porcellus [8]): 83% | Inhibition (Cavia porcellus [10]): 90% | Inhibition (Cavia porcellus [34]): 0% | Inhibition (Cavia porcellus [11]): 97%

Cc1cc(C)n(-c2n[nH]c(-n3nc(C)cc3C)c3c4ccccc4nc2-3)n1
inhibition [6]: 29.5%

Cc1cc(C)n(-c2[nH]nc(N3CCN(c4ccc(F)cc4)CC3)c3c4ccccc4nc2-3)n1
inhibition [16]: 2.52%

Nc1cc(-c2ccncc2)c[nH]c1=O [INAMRINONE]
Inhibition (Cavia porcellus [10]): 49% | Inhibition (Cavia porcellus [11]): 100%

Cc1cc(C)n(-c2[nH]nc(N3CCCCC3)c3c4ccccc4nc2-3)n1
inhibition at 10 µM (Homo sapiens [35]): 83.8% | inhibition at 10 µM (Homo sapiens [18]): 42.5% | Inhibition [4]: -80.4% | inhibition at 1 µM (Cavia porcellus [36]): 0% | inhibition at 100 µM [37]: -91% | inhibition [6]: 32.8% | inhibition at 10 µM (Homo sapiens [22]): 23.9% | inhibition at 10 µM (Homo sapiens [23]): 0% | Inhibition (Cavia porcellus [32]): 99.5% | Inhibition [38]: -100% | inhibition at 100 µM (Cavia porcellus [7]): 0% | inhibition at 10 µM (Cavia porcellus [39]): 67.5% | inhibition at 100 µM (Cavia porcellus [8]): 99.4% | Inhibition (Cavia porcellus [40]): 26.38% | Inhibition (Cavia porcellus [10]): 64.83% | Inhibition (Cavia porcellus [11]): 100%

Cc1cc(C)n(-c2[nH]nc(N3CCOCC3)c3c4ccccc4nc2-3)n1
inhibition at 10 µM (Homo sapiens [35]): 3.35% | inhibition at 10 µM (Homo sapiens [18]): 0% | Inhibition [4]: -78% | inhibition at 100 µM [37]: -80% | inhibition [6]: 38% | inhibition at 10 µM (Homo sapiens [22]): 24.8% | inhibition at 10 µM (Homo sapiens [23]): 36.6% | Inhibition (Cavia porcellus [32]): 59.83% | inhibition at 100 µM (Cavia porcellus [7]): 0% | inhibition at 10 µM (Cavia porcellus [39]): 0% | inhibition at 100 µM (Cavia porcellus [8]): 99.4% | Inhibition (Cavia porcellus [10]): 47.83% | Inhibition (Cavia porcellus [11]): 100%

Cc1cc(C)n(-c2[nH]nc(NN)c3c4ccccc4nc2-3)n1 [listing 1 of 2 here]
Inhibition [4]: 96% | Inhibition (Cavia porcellus [41]): 92.14% | Inhibition (Cavia porcellus [10]): 67.83%

NNC(=O)c1n[nH]c2c3nc4ccccc4c-3c(NN)nn12 [listing 3 of 3 here]
inhibition at 100 µM (Cavia porcellus [7]): 8.25% | inhibition at 100 µM (Cavia porcellus [8]): 38.3%

Cc1cc(C)n(-c2[nH]nc(Cl)c3c4ccccc4nc2-3)n1
Inhibition (Cavia porcellus [10]): 31% | Inhibition (Cavia porcellus [11]): 46.17%

Cc1cc(C)n(-c2[nH]nc(NN)c3c4ccccc4nc2-3)n1 [listing 2 of 2 here]
inhibition [6]: 9.39%

Cc1cc(C)n(-c2n[nH]c(N3CCN(C)CC3)c3c4ccccc4nc2-3)n1
inhibition [6]: 33.4% | Inhibition (Cavia porcellus [10]): 89.25% | Inhibition (Cavia porcellus [11]): 78.25%

Source: ChEMBL document CHEMBL1125767, “New 5H-pyridazino[4,5-b]indole derivatives. Synthesis and studies as inhibitors of blood platelet aggregation and inotropics” (J Med Chem, 1991)
